Data set [1] is described as follows: Cryopreserved hepatocyte stability, dog. Type of data set: in vitro ADME. Conditions: pooled cryopreserved hepatocytes, read-out: Mean intrinsic clearance. As for the experimental part:
Formulae Clint(tissue clearance) mL/min/kg=[0.693/t½ (min)]×[1/microsomal protein concentration mg/mL]×[mg microsomes/g liver]×[g liver/kg body weight] […] The incubations were performed at 37° C. with 100 μL, samples taken from the incubation, at 0, 10, 20, 45 and 90 minutes, and reactions terminated by addition of 100 μL of acetonitrile containing carbamazepine as analytical internal standard. […] Half-life values were calculated from the relationship T1/2 (min)=−0.693/λ • where λ was the slope of the Ln concentration vs time curve. • Standard compounds testosterone, midazolam and 4-methylumbelliferone are included in the assay design.
Clint(Tissue Clearance) mL/min/kg=[0.693/t½(min)]×[1/hepatocyte concentration (million cells/mL)]×[million cells/g liver]×[g liver/kg body weight] Clint(Hepatic clearance) mL/min/kg=hepatic blood flow×Clint/(hepatic blood flow+Clint) Hepatic extraction ratio(Eh)=Clint(Hepatic clearance) mL/min/kg/hepatic blood flow (mL/min/kg)

The next data set concerns PBMCs. In words: (i) Cell mitosis assay in PBMCs. The class given is cell-based. Conditions: Homo sapiens, PBMC, 5 μg/mL. How it is done: PBMCs from healthy subjects are separated from whole blood (Quintiles, London, UK) using a density gradient (Histopaque®-1077, Sigma-Aldrich, Poole, UK). The PBMCs (3 million cells per sample) are subsequently treated with 2% PHA (Sigma-Aldrich, Poole, UK) for 48 hr, followed by a 20 hr exposure to varying concentrations of test compounds. At 2 hr before collection, PBMCs are treated with demecolcine (0.1 μg/mL; Invitrogen, Paisley, UK) to arrest cells in metaphase. […] Fluorescence is observed using an ATTUNE flow cytometer (Invitrogen, Paisley, UK), gating for lymphocytes.

Structures are written as SMILES.

Drawing on patent US10301288B2, “Kinase inhibitors” (Topivert Pharma Limited, priority 2013, dated 2019), this text covers hepatocyte CLint and inhibition for 1 compound.

What is called inhibition is the percentage by which the read-out fell short of the control. The low end stands for a weak effect, the high end for a strong effect. On to `C#Cc1cc(Nc2nccc(Oc3ccc(NC(=O)Nc4cc(C(C)(C)C)nn4-c4ccc(C)cc4)c4ccccc34)n2)cc(C(=O)NCCOCCOCCOC)c1` [Example 2, 3-((4-((4-(3-(3-(tert-Butyl)-1-(p-tolyl)-1H-pyrazol-5-yl)ureido)naphthalen-1-yl)oxy)pyrimidin-2-yl)amino)-5-ethynyl-N-(2-(2-(2-methoxyethoxy)ethoxy)ethyl)-benzamide], for which, in data set [1], the hepatocyte CLint at 0.1 μM came to 46 µL/min/1e6 cells. In addition, the inhibition at 5 µg/mL in the data set with PBMCs worked out at 18.7%.
